Values quoted from earlier work, collected in US20100120723A1, “PHARMACEUTICAL COMPOSITION COMPRISING A HOT-MELT GRANULATED LUBRICANT” (priority 2006, published 2010).

System: bone resorption
Conditions: animal models of bone resorption

CCCCCN(C)CCC(O)(P(=O)(O)O)P(=O)(O)O [Sodium ibandronate]
potency relative to alendronate, risedronate, pamidronate and clodronate: many times more potent
